Assay results reported in US11117919B2, “Icariside compound, preparation method thereof, and application thereof” (FOSHAN GOLDEN HEALTH TECHNOLOGY CO., LTD., priority 2015, dated 2021).

Tests used:
[1] = system: normal human peripheral blood mononuclear cells (PBMCs); assay: IFN-γ production by PBMCs stimulated with Anti-CD3/Anti-CD28 (ELISA); format: cell-based; conditions: PBMCs treated with anti-CD3 and anti-CD28 (1 μg/ml each); icariside I 1, 10, 100 ng/ml; 12-48 h; dose-dependent
Protocol: Effect of icariside I on promoting normal human peripheral blood mononuclear cells (PBMCs subjected to mAb treatment) to produce γ-interferon (interferon-gamma, IFN-γ) (an experimental model mimicking enhancing immunity in human body).
(1) Preparation of icariside I solution for the test. 10 mg icariside I was dissolved in 1 ml DMSO (with initial concentration of 10 mg/ml). The solution was then transferred into small vials and stored in a freezer at −80° C. for future use.
The whole blood samples were drawn from peripheral vein of healthy volunteers. Heparin (blood:heparin=10 ml: 80 μl) was used for anticoagulation. Then, it is diluted with equal volume of Hank's solution. The diluted blood samples were slowly laid on the Ficoll separation solution (Ficoll to diluted blood ratio is 3:4) followed by Ficoll density gradient centrifugation (22° C. 2200 r/min, 20 min). After centrifugation, samples were divided into three layers in the tube. At the interface between the top and middle layers, there was a narrow band which is a mononuclear cell-based yellow-white cloud layer. The peripheral blood mononuclear cells (PBMCs) were drawn and transferred into another centrifuge tube with a pipette. […] The mononuclear cells were counted with trypan blue solution. […]
The collected cell culture supernatants with different culture time were detected with ELISA to measure the amount of cytokine IFN-γ produced. […]

PBMCs from healthy human = assay: IFN-γ production by PBMCs of healthy human cultured with icariside I (Example 9); format: cell-based; conditions: 0.1, 0.5, 1 μg/ml, 48 h
Protocol: (1) Isolation of human peripheral blood mononuclear cells (PBMCs): according to the method stated in Example 5 (2), normal human peripheral blood PBMCs were prepared.
(3) PBMCs and PFMCs cell culture (MLC) with stimulation by a pharmaceutical: Icariside I was used at concentrations of 0.1 μg/ml, 0.5 μg/ml, and 1 μg/ml respectively to stimulate PBMCs and PFMCs under the incubation condition at 37° C. with 5% CO2 for 48 hours.
(4) ELISA assay for analysis of IFN-γ: according to the method stated in Example 5 (4), the levels of γ-interferon produced by PBMCs and PFMCs after culture with pharmaceutical stimulations were measured.
PBMCs from healthy human and PFMCs from TB infected patients were respectively cultured for 2 days (48 h), then added or not added with the pharmaceutical icariside I (at a gradient of different concentrations). […] Among the tests, the concentrations of icariside I added were 0.1, 0.5 and 1 μg/ml. *P<0.05; **-***P<0.01.

## COc1ccc(-c2oc3c(CC=C(C)C)c(O[C@@H]4O[C@H](CO)[C@@H](O)[C@H](O)[C@H]4O)cc(O)c3c(=O)c2O)cc1 [icariside I]
[1]
  IFN-γ level produced by PBMCs: significantly enhanced
PBMCs from healthy human
  effect on PBMCs in producing IFN-γ: no significant promoting effect
